Results: publication PMC7419507, “In vitro Cas9-assisted editing of modular polyketide synthase genes to produce desired natural product derivatives” (Nature Communications, 2020)
“And” between values parts separate entries of the source, which are not always exact repeats. Equal values may be shown once.

Assays:
[1] = Cytotoxicity assay (CellTiter-Glo, 72 h), Jurkat; assay type: cell-based; details: human, Jurkat cells (T lymphoma)
Protocol: (§1) Jurkat cells were cultured in RPMI1640 medium supplemented with 10% foetal bovine serum, penicillin (50 U/ml), streptomycin (50 μg/ml), and Glutamax. SKOV-3 cells were cultured in DMEM medium supplemented with 10% fetal bovine serum, penicillin (50 U/ml), and streptomycin (50 μg/ml). MESO-1 cells were cultured in RPMI1640 medium supplemented with 10% fetal bovine serum, penicillin (50 U/ml), and streptomycin (50 μg/ml). All cell lines were seeded in a 384-well plate at a density of 1000 cells/well in 20 μl of media and incubated at 37 °C in a humidified incubator with 5% CO2. After 4 h, 2-fold dilution samples resolved in DMSO were added to the cell culture at the concentration of 0.5% (0.1 μl) and incubated for 72 h. Cell viabilities were measured using a CellTiter-Glo luminescent cell viability assay and EnVision multilabel plate reader.

T lymphoma Jurkat cells = experiment: Cytotoxicity assay (CellTiter-Glo, 72 h), Jurkat; assay type: cell-based; details: raw data (replicates)
Protocol: as §1

[2] = Cytotoxicity assay (CellTiter-Glo, 72 h), SKOV-3; assay type: cell-based, human; details: human
Protocol: as §1

SMILES: CO[C@H]1C[C@@H]2CC[C@@H](C)[C@@](O)(O2)C(=O)C(=O)N2CCCC[C@H]2C(=O)O[C@H]([C@H](C)C[C@@H]2CC[C@@H](O)[C@H](OC)C2)CC(=O)[C@H](C)/C=C(\C)[C@@H](O)[C@@H](OC)C(=O)[C@H](C)C[C@H](C)/C=C/C=C/C=C/1C [Compound 1, rapamycin, reference compound]
- viability at 72 h ([1]; 72 h, read-out: Plateau level of cell viability in the dose-response curve): ~25%
- viability at 72 h, 9.53674e-05 uM ([1]; conc 9.53674e-5 uM, raw data (replicates)): 51.5%
- viability at 72 h, 0.000190735 uM ([1]; conc 0.000190735 uM, raw data (replicates)): 40.1%
- viability at 72 h, 0.00038147 uM ([1]; conc 0.00038147 uM, raw data (replicates)): 41%
- viability at 72 h, 0.000762939 uM ([1]; conc 0.000762939 uM, raw data (replicates)): 32.5%
- viability at 72 h, 0.00152588 uM ([1]; conc 0.00152588 uM, raw data (replicates)): 100%
- viability at 72 h, 0.00305176 uM ([1]; conc 0.00305176 uM, raw data (replicates)): 41.9%
- viability at 72 h, 0.00610352 uM ([1]; conc 0.00610352 uM, raw data (replicates)): 30.7%
- viability at 72 h, 0.012207 uM ([1]; conc 0.012207 uM, raw data (replicates)): 28.3%
- viability at 72 h, 0.0244141 uM ([1]; conc 0.0244141 uM, raw data (replicates)): 25.3%
- viability at 72 h, 0.0488281 uM ([1]; conc 0.0488281 uM, raw data (replicates)): 24.5%
- viability at 72 h, 0.0976562 uM ([1]; conc 0.0976562 uM, raw data (replicates)): 24%
- viability at 72 h, 0.195312 uM ([1]; conc 0.195312 uM, raw data (replicates)): 24.4%
- viability at 72 h, 0.390625 uM ([1]; conc 0.390625 uM, raw data (replicates)): 23.8%
- viability at 72 h, 0.78125 uM ([1]; conc 0.78125 uM, raw data (replicates)): 23.7%
- viability at 72 h, 1.5625 uM ([1]; conc 1.5625 uM, raw data (replicates)): 23.8%
- viability at 72 h, 3.125 uM ([1]; conc 3.125 uM, raw data (replicates)): 23.9%
- viability at 72 h, 6.25 uM ([1]; conc 6.25 uM, raw data (replicates)): 20.6%
- viability at 72 h, 12.5 uM ([1]; conc 12.5 uM, raw data (replicates)): 18.3%
- viability at 72 h, 25 uM ([1]; conc 25 uM, raw data (replicates)): 7.7%
- Jurkat viability (%) (T lymphoma Jurkat cells; conc 9.53674e-5 uM): 52.8% and 57.4%
- Jurkat viability (%) (T lymphoma Jurkat cells; conc 0.000190735 uM): 35.2% and 40.4%
- Jurkat viability (%) (T lymphoma Jurkat cells; conc 0.00038147 uM): 39.9% and 44.6%
- Jurkat viability (%) (T lymphoma Jurkat cells; conc 0.000762939 uM): 31.7%
- Jurkat viability (%) (T lymphoma Jurkat cells; conc 0.00152588 uM): 102.7% and 105.0%
- Jurkat viability (%) (T lymphoma Jurkat cells; conc 0.00305176 uM): 37.4%
- Jurkat viability (%) (T lymphoma Jurkat cells; conc 0.00610352 uM): 31.8% and 34.7%
- Jurkat viability (%) (T lymphoma Jurkat cells; conc 0.012207 uM): 28.7% and 28.4%
- Jurkat viability (%) (T lymphoma Jurkat cells; conc 0.0244141 uM): 27.2% and 27.1%
- Jurkat viability (%) (T lymphoma Jurkat cells; conc 0.0488281 uM): 23.4%
- Jurkat viability (%) (T lymphoma Jurkat cells; conc 0.0976562 uM): 26.6% and 24.6%
- Jurkat viability (%) (T lymphoma Jurkat cells; conc 0.195312 uM): 24.1% and 25.5%
- Jurkat viability (%) (T lymphoma Jurkat cells; conc 0.390625 uM): 24.1% and 24.6%
- Jurkat viability (%) (T lymphoma Jurkat cells; conc 0.78125 uM): 24.2%
- Jurkat viability (%) (T lymphoma Jurkat cells; conc 1.5625 uM): 22.7% and 24.6%
- Jurkat viability (%) (T lymphoma Jurkat cells; conc 3.125 uM): 21.8% and 23.2%
- Jurkat viability (%) (T lymphoma Jurkat cells; conc 6.25 uM): 22.0% and 21.9%
- Jurkat viability (%) (T lymphoma Jurkat cells; conc 12.5 uM): 19.2%
- Jurkat viability (%) (T lymphoma Jurkat cells; conc 25 uM): 6.4% and 6.3%
- Jurkat viability (%) (T lymphoma Jurkat cells; conc 50 uM): 0.5% and 0.178% and 0.2%
- viability at 72 h ([2]; SKOV-3 cells (ovarian adenocarcinoma), SKOV-3 cells, 72 h, read-out: Plateau level of cell viability in the dose-response curve): ~60%
- viability at 72 h, 9.53674e-05 uM ([2]; SKOV-3 cells (ovarian adenocarcinoma), conc 9.53674e-5 uM, raw replicate data, read-out: SKOV3 viability (%)): 78.7%
- viability at 72 h, 0.000190735 uM ([2]; SKOV-3 cells (ovarian adenocarcinoma), conc 0.000190735 uM, raw replicate data, read-out: SKOV3 viability (%)): 70.9%
- viability at 72 h, 0.00038147 uM ([2]; SKOV-3 cells (ovarian adenocarcinoma), conc 0.00038147 uM, raw replicate data, read-out: SKOV3 viability (%)): 75.1%
- viability at 72 h, 0.000762939 uM ([2]; SKOV-3 cells (ovarian adenocarcinoma), conc 0.000762939 uM, raw replicate data, read-out: SKOV3 viability (%)): 62.9%
- viability at 72 h, 0.00152588 uM ([2]; SKOV-3 cells (ovarian adenocarcinoma), conc 0.00152588 uM, raw replicate data, read-out: SKOV3 viability (%)): 110%
- viability at 72 h, 0.00305176 uM ([2]; SKOV-3 cells (ovarian adenocarcinoma), conc 0.00305176 uM, raw replicate data, read-out: SKOV3 viability (%)): 70.7%
- viability at 72 h, 0.00610352 uM ([2]; SKOV-3 cells (ovarian adenocarcinoma), conc 0.00610352 uM, raw replicate data, read-out: SKOV3 viability (%)): 64.7%
- viability at 72 h, 0.012207 uM ([2]; SKOV-3 cells (ovarian adenocarcinoma), conc 0.012207 uM, raw replicate data, read-out: SKOV3 viability (%)): 59.4%
- viability at 72 h, 0.0244141 uM ([2]; SKOV-3 cells (ovarian adenocarcinoma), conc 0.0244141 uM, raw replicate data, read-out: SKOV3 viability (%)): 57.9%
- viability at 72 h, 0.0488281 uM ([2]; SKOV-3 cells (ovarian adenocarcinoma), conc 0.0488281 uM, raw replicate data, read-out: SKOV3 viability (%)): 61.1%
- viability at 72 h, 0.0976562 uM ([2]; SKOV-3 cells (ovarian adenocarcinoma), conc 0.0976562 uM, raw replicate data, read-out: SKOV3 viability (%)): 61.7%
- viability at 72 h, 0.195312 uM ([2]; SKOV-3 cells (ovarian adenocarcinoma), conc 0.195312 uM, raw replicate data, read-out: SKOV3 viability (%)): 59.4%
- viability at 72 h, 0.390625 uM ([2]; SKOV-3 cells (ovarian adenocarcinoma), conc 0.390625 uM, raw replicate data, read-out: SKOV3 viability (%)): 59.7%
- viability at 72 h, 12.5 uM ([2]; SKOV-3 cells (ovarian adenocarcinoma), conc 12.5 uM, raw replicate data, read-out: SKOV3 viability (%)): 57.5%
- viability at 72 h, 25 uM ([2]; SKOV-3 cells (ovarian adenocarcinoma), conc 25 uM, raw replicate data, read-out: SKOV3 viability (%)): 54.8%
- viability at 72 h, 0.78125 uM ([2]; SKOV-3 ovarian adenocarcinoma cells, conc 0.78125 uM, raw replicate data, read-out: SKOV3 viability (%)): 55.3%
- viability at 72 h, 1.5625 uM ([2]; SKOV-3 ovarian adenocarcinoma cells, conc 1.5625 uM, raw replicate data, read-out: SKOV3 viability (%)): 58.8%
- viability at 72 h, 3.125 uM ([2]; SKOV-3 ovarian adenocarcinoma cells, conc 3.125 uM, raw replicate data, read-out: SKOV3 viability (%)): 57.4%
- viability at 72 h, 6.25 uM ([2]; SKOV-3 ovarian adenocarcinoma cells, conc 6.25 uM, raw replicate data, read-out: SKOV3 viability (%)): 63.1%
